As a reminder, the viability is a read-out of living cells in per cent, often relative to untreated cells.

The nature of this series: MTS cytotoxicity assay on SVR cells. It counts as cell-based. Conditions: mouse, SVR cells, 48 hours, MTS, read-out: Viability of SVR cells compared to control, Ave (%). The method, then: 1. Testing concentrations of ACT-1 and ACT-2: 8 mM, 4 mM, 2 mM, 1 mM, 0.5 mM, 0.25 mM and 0.125 mM. 2. Trypsinized exponentially growing BAECs (P1) and SVR cells (P4), and prepared 5×10^4 cells/mL cell solution for BAECs and […] for SVR cells. Add 100 μl of cell solution to 96-well plates to achieve 5,000 cells/well for BAECs and 1,000 cells/well for SVR cells. Incubated cells at 37° C. overnight. 3. Prepared 8 mM=3.64 mg/mL and 8 mM ACT-2=3.62 mg/mL in BAEC complete culture medium. Sterilized the drug solutions by filtering through 0.2 μm syringe filters. 4. Prepared 2× serial dilutions from 8 mM stock solution by mixing 0.6 mL drug solution with 0.6 mL culture medium. 5. Aspirated medium from wells and added 80 μl of test article solutions to the wells according to the layout below.
6. Incubated cells at 37° C. for 48 hours. 7. Aspirated the medium from wells and added fresh 70 μl culture medium to the wells. 8. Prepared MTS reagent (Promega CellTiter 96 Aqueous MTS assay reagents, Cat #G5421) by mixing 2.4 mL MTS, 120 μl PMS and 3.779 mL culture medium. Added 50 μl MTS assay reagent to the wells using a multiple channel pipette. 9. Incubate at 37° C. for 2 hours. Read absorbance at 490 nm using a plate reader.
A general note: Tetrazolium dyes change colour on reduction, which living cells bring about.

SMILES strings stand for the structures.

Turning to `CC(C)CC(NC[C@@]1(O)OC[C@@H](O)[C@@H](O[C@@H]2O[C@H](CO)[C@H](O)[C@H](O)[C@H]2O)[C@@H]1O)C(=O)O` (stereo in doubt) [ACT-1], the viability at 48 h, 0.125 mM came out at 97.4%; the viability at 48 h, 0.25 mM was determined as 99.7%; the viability at 48 h, 0.5 mM stood at 100%; the viability at 48 h, 1 mM is 97.7%. Also, the viability at 48 h, 2 mM worked out at 95.8%; the viability at 48 h, 4 mM amounted to 93.1%; the viability at 48 h, 8 mM is 71.2%.

For `O=C(O)[C@H](CC1CC1)NC[C@@]1(O)OC[C@@H](O)[C@@H](O[C@@H]2O[C@H](CO)[C@H](O)[C@H](O)[C@H]2O)[C@@H]1O` [ACT-2], the viability at 48 h, 0.125 mM stood at 98.2%; the viability at 48 h, 0.25 mM is 105%; the viability at 48 h, 0.5 mM worked out at 98.7%; the viability at 48 h, 1 mM was 92.5%. The viability at 48 h, 2 mM was 95.1%; the viability at 48 h, 4 mM was 87.8%; the viability at 48 h, 8 mM stood at 76.1%.

For the origin of these results see patent US20130196935A1, “SYNTHETIC GLYCOAMINE COMPOUNDS” (ANIMAL CELL THERAPIES INC., priority 2012, published 2013).
